Among the data in the Deep4Chem optical property database are absorption maximum values, retold here.

The structures appear in SMILES notation.

A short description of the series: solvent given as SMILES.

On to `CCc1c(C)[nH]c(C2=[N+]3C(=Cc4c(C)c(CC)c(C)n4[B-]3(F)F)c3ccccc32)c1C`, for which the absorption maximum reads like this: (in C1CCOC1) 629 nm; (in CC#N) 620 nm; (in CCCCCC) 629 nm; (in CO) 623 nm; (in Cc1ccccc1) 636 nm; (in ClCCl) 629 nm.
The molecule `F[B-]12Oc3ccccc3-c3c4[n+]5c(c([n+]31)-c1ccccc1O2)-c1ccccc1O[B-]5(F)Oc1ccccc1-4` yielded an absorption maximum (in ClCCl) of 553 nm.
On to `CCn1c2ccccc2c2cc(C#Cc3cc(C#Cc4ccc5c(c4)c4ccccc4n5CC)nc(C#N)n3)ccc21`, for which the absorption maximum (in C1CCOC1) was found to be 410 nm; the absorption maximum (in CCOC(C)=O) is 405 nm; the absorption maximum (in CN(C)C=O) is 411 nm; the absorption maximum (in Cc1ccccc1) is on record as 410 nm; the absorption maximum (in ClCCl) was found to be 415 nm.
As to `CCC(CC)COC1=CC2=C3c4cc(OCC(CC)CC)c(-c5ccccc5)n4[B-](F)(F)[n+]4c3n(c3cc(C(C)(C)C)ccc34)[B-](F)(F)[N+]2=C1c1ccccc1`, the absorption maximum runs as follows: (in C1CCOC1) 702 nm; (in CC#N) 694 nm; (in ClCCl) 703 nm.
Take `CCOC(=O)CCCCCn1c2ccc(F)cc2c(=O)c2cc3c(cc21)c(=O)c1cc(F)ccc1n3CCCCCC(=O)OCC`: the absorption maximum (in CO) is recorded as 540 nm.
As to `C(=C\c1cccnc1)/c1ccc(Nc2ccccc2)cc1`, the absorption maximum was 358 nm (in CC#N) and 352 nm (in CCCCCC).
Turning to `COc1ccc2c(c1)CCc1c-2nc(N)c(C#N)c1-c1ccc(Br)cc1`, the absorption maximum by setting is: (in C1CCOC1) 362 nm; (in C1COCCO1) 366 nm; (in CC#N) 364 nm; (in CCCCCC) 360 nm; (in CCO) 370 nm; (in CN(C)C=O) 375 nm. For the same molecule, the absorption maximum is, setting by setting: (in CO) 371 nm; (in CS(C)=O) 379 nm; (in ClC(Cl)Cl) 368 nm; (in ClCCl) 365 nm.
As to `CCOC(=O)COc1ccc(C(c2c(C)[nH]c3ccccc23)c2c(C)[nH]c3ccccc23)cc1OC`, the absorption maximum was 290 nm (in CC#N), 291 nm (in CO) and 290 nm (in O).
Where the note is “in O”, `C=CC1CN2CCC1CC2[C@H](O)c1ccnc2ccc(OC)cc12` (stereo partly specified) displayed an absorption maximum of 347 nm.
As to `CC(C)(C)c1cc2c(c(C(C)(C)C)c1)O[B-]1(c3ccc([B-]45OC(c6ccccc6)=N[N+]4=Cc4cc(C(C)(C)C)cc(C(C)(C)C)c4O5)cc3)OC(c3ccccc3)=N[N+]1=C2` (stereo unspecified), the absorption maximum (in C1CCOC1) amounted to 455 nm.
`CCCCCCc1cc2c(=S)c3cc(CCCCCC)cc4c(=S)c5cc(CCCCCC)cc6c(=S)c(c1)c2n(c34)c65` gave an absorption maximum (in ClCCl) of 572 nm.
Turning to `CC(C)(C)c1cc2c3cc(C(C)(C)C)c(-c4cc5cc6c7cccc8cccc(c9cc(C(C)(C)C)cc(c5cc4C(C)(C)C)c96)c87)cc3cc3c4cccc5cccc(c(c1)c23)c54`, where the note is “in CC1CCCCC1”, the absorption maximum was found to be 446 nm.
Where the note is “in Cc1ccccc1”, `c1ccc(-c2nc(-c3ccccc3)nc(-c3ccc(N4c5ccccc5C5(c6ccccc6-c6ccccc65)c5ccccc54)cc3)n2)cc1` had an absorption maximum of 399.05 nm.
For the setting “in CO”, `C(=C\c1c[nH]c2ccccc12)/c1cc[n+]2ccc(/C=C/c3c[nH]c4ccccc34)cc2c1` gave an absorption maximum of 489 nm.
`CC(C)(C)c1ccc2c(c1)c1cc(C(C)(C)C)ccc1n2-c1cc(C(=O)c2ccccn2)cc(-n2c3ccc(C(C)(C)C)cc3c3cc(C(C)(C)C)ccc32)c1`: the absorption maximum (in Cc1ccccc1) was found to be 394 nm.
`CCn1c2c(-c3ccc(-c4cccs4)s3)cc(C(C)(C)C)cc2c2cc(C(C)(C)C)cc(-c3ccc(-c4cccs4)s3)c21` had an absorption maximum (in ClCCl) of 360 nm.
Consider `CN(C)c1cccc2c1-c1ccccc1C2=O`, for which the absorption maximum is, setting by setting: (in C1CCCCC1) 412 nm; (in CC#N) 439 nm; (in CCO) 438 nm; (in c1ccccc1) 433 nm.
In the case of `N#Cc1ccc(-c2cc(-c3ccc(N4CCCC4)cc3)nc(-c3ccccc3)n2)cc1`, the absorption maximum (in ClC(Cl)Cl) is on record as 385 nm.
Under “in CCO”, `Cc1cc(=O)oc2cc(O)ccc12` registered an absorption maximum of 323 nm.
`CC(C)(C)c1ccc2c(c1)c1cc(C(C)(C)C)ccc1n2-c1ccc(N(c2ccc(-c3ccc(-c4ccc(-c5ccc(N(c6ccc(-n7c8ccc(C(C)(C)C)cc8c8cc(C(C)(C)C)ccc87)cc6)c6ccc(-n7c8ccc(C(C)(C)C)cc8c8cc(C(C)(C)C)ccc87)cc6)cc5)s4)s3)cc2)c2ccc(-n3c4ccc(C(C)(C)C)cc4c4cc(C(C)(C)C)ccc43)cc2)cc1` returned an absorption maximum (in ClCCl) of 418 nm.
On to `Cc1nc2c(ccc3c2sc(/C=C/c2ccc(N4CCN(C)CC4)cc2)[n+]3C)s1`, for which the absorption maximum runs as follows: (in CO) 505 nm; (in ClC(Cl)Cl) 545 nm.
With `O=C1NC(=O)c2ccc3c4ccc5c6c(ccc(c7ccc1c2c73)c64)C(=O)N(c1ccc(Cl)cc1)C5=O`, the absorption maximum (in CN(C)C=O) turned out to be 526 nm.
Regarding `N#Cc1nnn(-c2ccnc3cc(Cl)ccc23)c1N`, the absorption maximum (in C1CCCCC1) is reported as 326.01 nm; the absorption maximum (in C1CCOC1) is 364.05 nm; the absorption maximum (in C1COCCO1) is reported as 365.68 nm; the absorption maximum (in CC#N) turned out to be 381.45 nm; the absorption maximum (in CCOC(C)=O) was 364.01 nm; the absorption maximum (in CN(C)C=O) came out at 376.7 nm. Besides, the absorption maximum runs as follows: (in CO) 386.62 nm; (in CS(C)=O) 368.79 nm; (in ClC(Cl)Cl) 385 nm.
On to `CCC(C)(C)c1ccc2c(c1)C(CC)(CC)c1cc(-c3ccc4c(c3)C(CC)(CC)c3cc(C(C)(C)CC)ccc3-4)ccc1-2`, for which the absorption maximum (in C1CCCCC1) stood at 331 nm.
For the molecule `O=C1Nc2ccccc2/C1=C/C(=O)c1ccc([N+](=O)[O-])cc1`, the absorption maximum (in C1CCCCC1) is 341 nm; the absorption maximum (in C1COCCO1) was found to be 343 nm; the absorption maximum (in CC#N) is 341 nm; the absorption maximum (in CC(C)(C)O) is reported as 347 nm; the absorption maximum (in CC(C)O) was found to be 345 nm; the absorption maximum (in CCCCCC) was 340 nm. The absorption maximum (in CCCCO) is recorded as 346 nm; the absorption maximum (in CCOC(C)=O) came to 342 nm; the absorption maximum (in CN(C)C=O) stood at 344 nm; the absorption maximum (in CO) was 346 nm; the absorption maximum (in ClCCl) is 344 nm.
`COc1ccc(C#Cc2c3ccccc3c(C#Cc3ccc(OC)cc3)c3cc4sc(C)cc4cc23)cc1`: where the note is “in ClCCl”, the absorption maximum was found to be 520 nm.
Molecule `Cc1ccc(C)n1-c1ccccc1` showed an absorption maximum (in CC#N) of 234 nm and an absorption maximum (in CCCCCC) of 240 nm.
Where the note is “in ClCCl”, `Cc1ccc(N(c2ccc(C)cc2)c2ccc(Oc3nnc(Cl)nn3)cc2)cc1` returned an absorption maximum of 523 nm.
Still for that read-out and setting: the result for `CCOC(=O)COc1ccc(/C=C/C2=[N+]3C(=Cc4c5ccccc5c(-c5[nH]c(C)cc5C)n4[B-]3(F)F)C(C)=C2)cc1` reads 680 nm.
For `CCCCC1(c2ccccc2)Nc2c(-c3ccc(N(C)C)cc3)ccc(-c3ccc(N(C)C)cc3)c2N=C1c1ccccc1` (stereo unspecified), the absorption maximum (in ClC(Cl)Cl) worked out at 371 nm.
On the same count and under the same terms, the result for `CC(C)(C)c1ccc(-c2ccc(-c3c4c(nc5ccccc35)-c3cc5c(cc3CC4)-c3nc4ccccc4c(-c4ccc(-c6ccc(C(C)(C)C)cc6)cc4)c3CC5)cc2)cc1` reads 376 nm.
With `CCCCCn1c2ccc(S(=O)(=O)O)cc2c(=O)c2cc(S(=O)(=O)O)ccc21`, the absorption maximum reads like this: (in CS(C)=O) 406 nm; (in O) 406 nm.
As for `CN(C)c1ccc(/C=C/c2cnc3ccccc3n2)cc1`, the absorption maximum reads like this: (in C1CCOC1) 424 nm; (in CC#N) 424 nm; (in CCCCCCC) 418 nm; (in CS(C)=O) 435 nm; (in ClCCl) 427 nm.
Take `O=c1oc2ccccc2cc1-c1cccc(-c2cc3ccccc3oc2=O)c1`: the absorption maximum (in ClC(Cl)Cl) came to 330 nm.
For the molecule `COC(=O)C[C@H](NC(=O)[C@H](Cc1c[nH]c2ccccc12)NC(=O)OC(C)(C)C)C(=O)OC`, the absorption maximum (in CC#N) is recorded as 280 nm, the absorption maximum (in CCOC(C)=O) is 280 nm and the absorption maximum (in CO) is listed as 280 nm.
Regarding `COc1ccc2nc3c(nc2c1)c(-c1ccccc1)nn3C`, the absorption maximum (in C1CCCCC1) turned out to be 431 nm, the absorption maximum (in C1CCOC1) amounted to 435 nm and the absorption maximum (in CC#N) is 434 nm.
With `CCCCc1ccc2ccc3c(CCCC)ccc4ccc1c2c43`, the absorption maximum (in CCCCCC) worked out at 344 nm, the absorption maximum (in CO) is on record as 344 nm and the absorption maximum (in ClCCl) is listed as 347 nm.
As to `COc1ccc(C2CC(=O)Oc3c2c2nc4ccccc4nc2c2ccccc32)cc1` (stereo unspecified), for the setting “in ClC(Cl)Cl”, the absorption maximum worked out at 406 nm.
The molecule `CCCCC(CC)CN1C(=O)c2cc(Oc3ccc(C(C)(C)C)cc3)c3c4c(Cl)cc5c6c(cc(Cl)c(c7c(Oc8ccc(C(C)(C)C)cc8)cc(c2c37)C1=O)c64)C(=O)N(c1c(C(C)C)cccc1C(C)C)C5=O` (stereo unspecified) displayed an absorption maximum (in Cc1ccccc1) of 560 nm.
Take `CCC1=C(C)C2=C(c3cc(C(=O)Cl)cc(C(=O)Cl)c3)c3c(C)c(CC)c(C)n3[B-](F)(F)[N+]2=C1C`: the absorption maximum by setting is: (in C1CCOC1) 528 nm; (in CC#N) 524 nm; (in CN(C)C=O) 529 nm; (in Cc1ccccc1) 531 nm; (in ClC(Cl)Cl) 532 nm.
For the setting “in CC#N”, `N#Cc1nn(-c2ccccc2C(F)(F)F)nc1N1CCCC1` displayed an absorption maximum of 326 nm.
Same read-out and setting: the value for `Cc1sc(Cl)cc1-c1nc(-c2ccccc2)[nH]c1-c1cc(Cl)sc1C` was 298 nm.
In the case of `CCCCCCCCOc1ccc(-c2c3c4n(c(-c5ccc(OCCCCCCCC)cc5)c3c3n2[B-](F)(F)[n+]2ccccc2N=3)[B-](F)(F)[n+]2ccccc2N=4)cc1`, the absorption maximum (in ClC(Cl)Cl) amounted to 638 nm.
Consider `c1ccc2c(c1)-c1ccccc1C21c2ccccc2N(c2ccc(-c3nc([C@]45CC6CC(C[C@@H](C6)C4)C5)nc([C@]45C[C@H]6C[C@@H](C[C@H](C6)C4)C5)n3)cc2)c2ccccc21`, for which, where the note is “in Cc1ccccc1”, the absorption maximum is listed as 380.1 nm.
For `COc1ccc2c(c1)SCC1=C(c3ccccc3)C3=Nc4c(-c5ccccc5)c5c(n4[B-](F)(F)[N+]3=C12)-c1ccc(OC)cc1SC5`, the absorption maximum (in ClC(Cl)Cl) came to 706 nm.
